From the supplement of paper PMC11061612

How the values were obtained:
AZD5363 = compound: C1CN(CCC1(C(=O)N[C@@H](CCO)C2=CC=C(C=C2)Cl)N)C3=NC=NC4=C3C=CN4 [AZD5363]; settings: max 10 µM
Outline: (§1)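 Cancer cell lines were seeded in 1536-well plates in 7.5 μl DMEM/F12 or RPMI with 10% FBS, held 24 hours at 37°C and 5% CO2, then dosed for 72 hours (final DMSO typically 0.2%). Viability was read by CellTiter-Glo 2.0 luminescence and scaled between blank-well and DMSO-well means. The single-agent IC50 comes from dose responses fitted to a two-parameter logistic curve with a non-linear mixed effects model.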

Prexasertib = compound: COc1cccc(OCCCN)c1-c1cc(Nc2cnc(C#N)cn2)n[nH]1 [Prexasertib]; settings: max 1 µM
Outline: as §1

AZD0156 = compound: CN(C)CCCOc1ccc(-c2ccc3ncc4c(c3c2)n(C2CCOCC2)c(=O)n4C)cn1 [AZD0156]; settings: max 3 µM
Outline: as §1

AZD4320 = compound: CN(CC[C@H](CSC1=CC=CC=C1)NC2=C(C=C(C=C2)S(=O)(=O)NC(=O)C3=CC=C(C=C3)N4CCC(CC4)[C@H](C5=CC=CC=C5C6=CC=C(C=C6)Cl)O)S(=O)(=O)C(F)(F)F)CCO [AZD4320]; settings: max 1 µM
Outline: as §1

Gemcitabine = compound: Nc1ccn([C@@H]2O[C@H](CO)[C@@H](O)C2(F)F)c(=O)n1 [Gemcitabine]; settings: max 0.3 µM
Outline: as §1

Venetoclax = compound: CC1(C)CCC(CN2CCN(c3ccc(C(=O)NS(=O)(=O)c4ccc(NCC5CCOCC5)c([N+](=O)[O-])c4)c(Oc4cnc5[nH]ccc5c4)c3)CC2)=C(c2ccc(Cl)cc2)C1 [Venetoclax]; settings: max 1 µM
Outline: as §1

Selumetinib = compound: Cn1cnc2c(F)c(Nc3ccc(Br)cc3Cl)c(C(=O)NOCCO)cc21 [Selumetinib]; settings: max 10 µM
Outline: as §1

Etoposide = compound: COc1cc([C@@H]2c3cc4c(cc3[C@@H](O[C@@H]3O[C@@H]5CO[C@@H](C)O[C@H]5[C@H](O)[C@H]3O)[C@H]3COC(=O)[C@H]23)OCO4)cc(OC)c1O [Etoposide]; settings: max 10 µM
Outline: as §1

[1] = compound: O=C(Nc1ccc2[nH]nc(-c3ccncc3)c2c1)[C@@H]1CCN(CC(=O)N2CCN(c3ccc(-c4ncccn4)cc3)CC2)C1; settings: max 5 µM
Outline: as §1

AZD1390 = compound: CC(C)n1c(=O)n(C)c2cnc3cc(F)c(-c4ccc(OCCCN5CCCCC5)nc4)cc3c21 [AZD1390]; settings: max 0.3 µM
Outline: as §1

Trametinib = compound: CC(=O)Nc1cccc(-n2c(=O)n(C3CC3)c(=O)c3c(Nc4ccc(I)cc4F)n(C)c(=O)c(C)c32)c1 [Trametinib]; settings: max 1 µM
Outline: as §1

Paclitaxel = compound: CC(=O)O[C@H]1C(=O)[C@@]2(C)[C@H]([C@H](OC(=O)c3ccccc3)[C@]3(O)C[C@H](OC(=O)[C@H](O)[C@@H](NC(=O)c4ccccc4)c4ccccc4)C(C)=C1C3(C)C)[C@]1(OC(C)=O)CO[C@@H]1C[C@@H]2O [Paclitaxel]; settings: max 3 µM
Outline: as §1

Carboplatin = compound: C1CC(C1)(C(=O)[O-])C(=O)[O-].N.N.[Pt+2] [Carboplatin]; settings: max 10 µM
Outline: as §1

AZD8186 = compound: C[C@@H](Nc1cc(F)cc(F)c1)c1cc(C(=O)N(C)C)cc2c(=O)cc(N3CCOCC3)oc12 [AZD8186]; settings: max 10 µM
Outline: as §1

MK-2206 = compound: NC1(c2ccc(-c3nc4ccn5c(=O)[nH]nc5c4cc3-c3ccccc3)cc2)CCC1 [MK-2206]; settings: max 10 µM
Outline: as §1

Savolitinib = compound: C[C@@H](c1ccc2nccn2c1)n1nnc2ncc(-c3cnn(C)c3)nc21 [Savolitinib]; settings: max 1 µM
Outline: as §1

SN-38 = compound: CCc1c2c(nc3ccc(O)cc13)-c1cc3c(c(=O)n1C2)COC(=O)[C@]3(O)CC [SN-38]; settings: max 0.3 µM
Outline: as §1

Taselisib = compound: Cc1nc(-c2cn3c(n2)-c2ccc(-c4cnn(C(C)(C)C(N)=O)c4)cc2OCC3)n(C(C)C)n1 [Taselisib]; settings: max 10 µM
Outline: as §1

Alisertib = compound: COc1cc(Nc2ncc3c(n2)-c2ccc(Cl)cc2C(c2c(F)cccc2OC)=NC3)ccc1C(=O)O [Alisertib]; settings: max 10 µM
Outline: as §1

AZD1775 = compound: C=CCn1c(=O)c2cnc(Nc3ccc(N4CCN(C)CC4)cc3)nc2n1-c1cccc(C(C)(C)O)n1 [AZD1775]; settings: max 3 µM
Outline: as §1

Crizotinib = compound: C[C@@H](Oc1cc(-c2cnn(C3CCNCC3)c2)cnc1N)c1c(Cl)ccc(F)c1Cl [Crizotinib]; settings: max 10 µM
Outline: as §1

SG3199 = compound: CC1=CN2[C@@H](C1)C=NC3=CC(=C(C=C3C2=O)OC)OCCCCCOC4=C(C=C5C(=C4)N=C[C@@H]6CC(=CN6C5=O)C)OC [SG3199]; settings: max 0.001 µM
Outline: as §1

AZD5153 = compound: COc1nnc2ccc(N3CCC(c4ccc(OCCN5CCN(C)C(=O)[C@H]5C)cc4)CC3)nn12 [AZD5153]; settings: max 1 µM
Outline: as §1

5-Fluorouracil = compound: O=c1[nH]cc(F)c(=O)[nH]1 [5-Fluorouracil]; settings: max 20 µM
Outline: as §1

Dasatinib = compound: CC1=C(C(=CC=C1)Cl)NC(=O)C2=CN=C(S2)NC3=CC(=NC(=N3)C)N4CCN(CC4)CCO [Dasatinib]; settings: max 2 µM
Outline: as §1

Olaparib = compound: O=C(c1cc(Cc2n[nH]c(=O)c3ccccc23)ccc1F)N1CCN(C(=O)C2CC2)CC1 [Olaparib]; settings: max 10 µM
Outline: as §1

Palbociclib = compound: CC(=O)c1c(C)c2cnc(Nc3ccc(N4CCNCC4)cn3)nc2n(C2CCCC2)c1=O [Palbociclib]; settings: max 10 µM
Outline: as §1

AZD7648 = compound: Cc1cc2ncnn2cc1Nc1ncc2c(n1)n(C1CCOCC1)c(=O)n2C [AZD7648]; settings: max 10 µM
Outline: as §1

AZD2811 = compound: CCN(CCO)CCCOc1ccc2c(Nc3cc(CC(=O)Nc4cccc(F)c4)[nH]n3)ncnc2c1 [AZD2811]; settings: max 1 µM
Outline: as §1

SRA737 = compound: N#Cc1cnc(Nc2cc(NC[C@H]3CNCCO3)c(C(F)(F)F)cn2)cn1 [SRA737]; settings: max 10 µM
Outline: as §1

Doxorubicin = compound: COc1cccc2c1C(=O)c1c(O)c3c(c(O)c1C2=O)C[C@@](O)(C(=O)CO)C[C@@H]3O[C@H]1C[C@H](N)[C@H](O)[C@H](C)O1 [Doxorubicin]; settings: max 1 µM
Outline: as §1

Gefitinib = compound: COc1cc2ncnc(Nc3ccc(F)c(Cl)c3)c2cc1OCCCN1CCOCC1 [Gefitinib]; settings: max 10 µM
Outline: as §1

AZD6738 = compound: C[C@@H]1COCCN1C2=NC(=NC(=C2)C3(CC3)[S@](=N)(=O)C)C4=C5C=CNC5=NC=C4 [AZD6738]; settings: max 10 µM
Outline: as §1

Lapatinib = compound: CS(=O)(=O)CCNCc1ccc(-c2ccc3ncnc(Nc4ccc(OCc5cccc(F)c5)c(Cl)c4)c3c2)o1 [Lapatinib]; settings: max 10 µM
Outline: as §1

AZD5991 = compound: Cc1c2c(nn1C)CSCc1cc(n(C)n1)CSc1cc(c3ccccc3c1)OCCCc1c(C(=O)O)n(C)c3c-2c(Cl)ccc13 [AZD5991]; settings: max 1 µM
Outline: as §1

Cell Line | IC50, cell viability 72 h (AZD5363) [µM] | IC50, cell viability 72 h (Prexasertib) [µM] | IC50, cell viability 72 h (AZD0156) [µM] | IC50, cell viability 72 h (AZD4320) [µM] | IC50, cell viability 72 h (Gemcitabine) [µM] | IC50, cell viability 72 h (Venetoclax) [µM] | IC50, cell viability 72 h (Selumetinib) [µM] | IC50, cell viability 72 h (Etoposide) [µM] | IC50, cell viability 72 h [1] [µM] | IC50, cell viability 72 h (AZD1390) [µM] | IC50, cell viability 72 h (Trametinib) [µM] | IC50, cell viability 72 h (Paclitaxel) [µM] | IC50, cell viability 72 h (Carboplatin) [µM] | IC50, cell viability 72 h (AZD8186) [µM] | IC50, cell viability 72 h (MK-2206) [µM] | IC50, cell viability 72 h (Savolitinib) [µM] | IC50, cell viability 72 h (SN-38) [µM] | IC50, cell viability 72 h (Taselisib) [µM] | IC50, cell viability 72 h (Alisertib) [µM] | IC50, cell viability 72 h (AZD1775) [µM] | IC50, cell viability 72 h (Crizotinib) [µM] | IC50, cell viability 72 h (SG3199) [µM] | IC50, cell viability 72 h (AZD5153) [µM] | IC50, cell viability 72 h (5-Fluorouracil) [µM] | IC50, cell viability 72 h (Dasatinib) [µM] | IC50, cell viability 72 h (Olaparib) [µM] | IC50, cell viability 72 h (Palbociclib) [µM] | IC50, cell viability 72 h (AZD7648) [µM] | IC50, cell viability 72 h (AZD2811) [µM] | IC50, cell viability 72 h (SRA737) [µM] | IC50, cell viability 72 h (Doxorubicin) [µM] | IC50, cell viability 72 h (Gefitinib) [µM] | IC50, cell viability 72 h (AZD6738) [µM] | IC50, cell viability 72 h (Lapatinib) [µM] | IC50, cell viability 72 h (AZD5991) [µM]
D-263MG (Glioblastoma) | > 10 | 0.125 | > 3 | > 1 | > 0.3 | > 1 | > 10 | > 10 | > 5 | > 0.3 | > 1 | 0.0761 | > 10 | > 10 | > 10 | > 1 | 0.114 | > 10 | 7.08 | 2.49 | > 10 | > 0.001 | > 1 | > 20 | > 2 | > 10 | > 10 | > 10 | > 1 | > 10 | 0.858 | > 10 | 7.85 | > 10 | > 1
EFM-19 (Breast Carcinoma) | > 10 | > 1 | > 3 | > 1 | > 0.3 | > 1 | > 10 | > 10 | > 5 | > 0.3 | > 1 | 0.0269 | > 10 | > 10 | > 10 | > 1 | 0.288 | 0.564 | > 10 | 2.09 | > 10 | > 0.001 | > 1 | > 20 | > 2 | > 10 | > 10 | > 10 | > 1 | > 10 | > 1 | > 10 | > 10 | > 10 | > 1
EW-24 (Ewing's Sarcoma) | > 10 | 0.12 | > 3 | 0.204 | 0.031 | > 1 | > 10 | 5.33 | > 5 | > 0.3 | > 1 | 0.255 | > 10 | > 10 | > 10 | > 1 | 0.0129 | 2.45 | > 10 | > 3 | > 10 | > 0.001 | > 1 | > 20 | > 2 | > 10 | > 10 | > 10 | > 1 | 8.42 | > 1 | > 10 | > 10 | > 10 | > 1
EoL-1-cell (Acute Myeloid Leukemia) | 3.19 | 0.00487 | > 3 | 0.00851 | 0.0067 | 0.0618 | 1.55 | 0.157 | 0.506 | > 0.3 | 0.0155 | 0.00412 | > 10 | > 10 | 4.05 | > 1 | 0.00599 | 6.19 | 0.0428 | 0.158 | 2.29 | > 0.001 | 0.0413 | 3.96 | 0.00561 | > 10 | 4.64 | > 10 | 0.00992 | – | 0.0691 | > 10 | 0.765 | > 10 | 0.0606
Hs-766T (Pancreatic Carcinoma) | > 10 | 0.163 | > 3 | > 1 | > 0.3 | > 1 | 5.43 | > 10 | > 5 | > 0.3 | 0.113 | > 3 | > 10 | > 10 | > 10 | > 1 | > 0.3 | > 10 | > 10 | > 3 | > 10 | > 0.001 | > 1 | > 20 | > 2 | > 10 | > 10 | > 10 | > 1 | > 10 | > 1 | > 10 | > 10 | > 10 | > 1
